Blank lines part the entries; values can stand above or below the molecule they belong to.
Tests used:
[1] = target: Protein Kinase C mediated procollagenase synthesis and secretion; experiment: In Vitro Inhibition of Procollagenase: PKC (PDBu) stimulated procollagenase synthesis and secretion in primary human dermal fibroblasts; format: cell-based; design: unit not given here; details: 2.0% FBS used to supplement DME; 10 nM PDBu, 72 hours
Source text: Collagenase and stromelysin are matrix metalloendoproteases which are known to be synthesized and secreted by a number of cell types in response to Protein Kinase C (PKC) activation. Matrix metalloendoproteases are responsible for the degradation of extracellular matrix molecules in the basement membrane and play a role in cell invasiveness, tissue remodeling alterations in the microvasculature (increased capillary permeability and uncontrolled cell growth) and normal matrix turnover. Alterations in the microvasculature are hallmarks of diabetic complications such as kidney failure, blindness and neuropathy. Accordingly, the ability to modulate PKC driven pathways, such as the synthesis and secretion of the […] enzyme precursor, procollagenase, should provide pharmacological advantages in treating diabetic complications.
The compounds of the present invention were evaluated for their ability to antagonize Protein Kinase C mediated procollagenase synthesis and secretion according to the following methodology.
Stimulation of the enzyme Protein Kinase C with 4-β-phorbol-12,13-dibutyrate (PDBu) leads human fibroblasts and other cells of endodermal, mesodermal and ectodermal origin to synthesize and secrete the enzyme precursor procollagenase. […]
9. After washing, the plates were read. […]

diabetic rats = experiment: In Vivo Vascular Permeability Study in diabetic rats; design: species or system rat; details: treated diabetic rats; 0.1% of diet, seven weeks; Mean ± SD; eight rats per group
Procedure: As confirmation of the in vivo results obtained above, a second in vivo experiment was conducted. In this in vivo test system the compound of Example 7 was fed to diabetic rats at 0.1% of the rat's diet for seven weeks. After seven weeks the rats were killed and vascular permeability in a number of different organ systems was compared. In Table III, Column 1 discloses the organ system examined, while Columns 2, 3 and 4 disclose the vascular permeability in μg of plasma/gram wet weight/minute for control (non-diabetic rats), untreated (diabetic rats/untreated) and treated (diabetic rats/treated), respectively (eight rats per each group).

- IC50 [1]: 8.6
Molecule: N-[[3-(methylthiophenyl)-4-hydroxy-5-(1,1-dimethylethyl)phenyl]methyl]-N'-[4-(methylthio)phenyl]urea [Example 13]

Molecule: CSc1ccc(NC(=O)NCc2cc(C(C)(C)C)c(O)c(C(C)(C)C)c2)cc1 [Example 6, N-[[3,5-Bis(1,1-dimethylethyl)-4-hydroxyphenyl]methyl]-N'-[4-(methylthio)phenyl]urea]
- % Normalization of Diabetic State, Blood Flow (rat): 35.48%
- % Normalization of Diabetic State, Blood Vessel Permeability (rat): 66.12%

Molecule: CSc1ccccc1NC(=O)NCc1cc(C(C)(C)C)c(O)c(C(C)(C)C)c1 [Example 9, N-[[3,5-Bis(1,1-dimethylethyl)-4-hydroxyphenyl]methyl]-N'-[2-(methylthio)phenyl]urea]
- % Normalization of Diabetic State, Blood Flow (rat): 23.29%
- % Normalization of Diabetic State, Blood Vessel Permeability (rat): 8.45%

Molecule: COc1c(C(C)(C)C)cc(CNC(=O)Nc2ccc(SC)cc2)cc1C(C)(C)C [Example 7]
- vascular permeability, aorta (diabetic rats): 109 ± 65 μg plasma/g wet weight/min
- vascular permeability, brain (diabetic rats): 26 ± 11 μg plasma/g wet weight/min
- vascular permeability, heart (diabetic rats): 547 ± 181 μg plasma/g wet weight/min
- vascular permeability, kidney (diabetic rats): 1208 ± 293 μg plasma/g wet weight/min
- vascular permeability, muscle (diabetic rats): 59 ± 13 μg plasma/g wet weight/min
- vascular permeability, ocular anterior uvea (diabetic rats): 373 ± 105 μg plasma/g wet weight/min
- vascular permeability, ocular posterior uvea (diabetic rats): 323 ± 91 μg plasma/g wet weight/min
- vascular permeability, retina (diabetic rats): 62 ± 18 μg plasma/g wet weight/min
- vascular permeability, sciatic nerve (diabetic rats): 59 ± 18 μg plasma/g wet weight/min

Molecule: CSc1cccc(NC(=O)NCc2cc(C(C)(C)C)c(O)c(C(C)(C)C)c2)c1 [Example 11, N-[[3,5-Bis(1,1-dimethylethyl)-4-hydroxyphenyl]methyl]-N'-[3-(methylthio)phenyl]urea]
- % Normalization of Diabetic State, Blood Flow (rat): 21.50%
- % Normalization of Diabetic State, Blood Vessel Permeability (rat): -30.34%

Molecule: CC(C)(C)c1cc(CNC(=S)Nc2ccccc2)cc(C(C)(C)C)c1O [Example 10, N-[[3,5-Bis(1,1-dimethylethyl)-4-hydroxyphenyl]methyl]-N'-phenylthiourea]
- % Normalization of Diabetic State, Blood Flow (rat): 17.56%
- % Normalization of Diabetic State, Blood Vessel Permeability (rat): 1.99%
